Data taken from PubChem BioAssay AID330 (DTP/NCI, 2004).
Inconclusive results and toxic doses are left out.

Tested on: P388 leukemia ip, CD2F1 mice, survival T/C
Assay: NCI In Vivo Anticancer Drug Screen. Data for tumor model P388 Leukemia (intraperitoneal) in CD2F1 (CDF1) mice
Details: endpoint: median survival time, higher = longer survival
How it was run: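 Mice carrying the transplanted tumor received test compound or vehicle. Survival was recorded in each group, and the value is the treated-group measurement divided by that of the vehicle-treated control group.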

[1] = dose: 50.0 mg/kg/injection, schedule: Q01DX009 (ip), vehicle: Klucel (hydroxypropylcellulose) (HPC)
[2] = dose: 100.0 mg/kg/injection, schedule: Q01DX009 (ip), vehicle: Klucel (hydroxypropylcellulose) (HPC)
[3] = dose: 200.0 mg/kg/injection, schedule: Q01DX009 (ip), vehicle: Klucel (hydroxypropylcellulose) (HPC)
[4] = dose: 50.0 mg/kg/injection, schedule: Q01DX005 (ip), vehicle: saline with Tween-80
[5] = dose: 100.0 mg/kg/injection, schedule: Q01DX005 (ip), vehicle: saline with Tween-80
[6] = dose: 200.0 mg/kg/injection, schedule: Q01DX005 (ip), vehicle: saline with Tween-80
[7] = dose: 60.0 mg/kg/injection, schedule: Q01DX005 (ip), vehicle: saline
[8] = dose: 120.0 mg/kg/injection, schedule: Q01DX005 (ip), vehicle: saline
[9] = dose: 240.0 mg/kg/injection, schedule: Q01DX005 (ip), vehicle: saline
[10] = dose: 60.0 mg/kg/injection, schedule: Q01DX005 (ip), vehicle: saline with Tween-80
[11] = dose: 120.0 mg/kg/injection, schedule: Q01DX005 (ip), vehicle: saline with Tween-80
[12] = dose: 240.0 mg/kg/injection, schedule: Q01DX005 (ip), vehicle: saline with Tween-80

CCCC(=O)N[C@H]1CCc2cc(OC)c(OC)c(OC)c2-c2ccc(SC)c(=O)cc21
T/C (dose: 0.38 mg/kg/injection, schedule: Q01DX009 (ip), vehicle: distilled water + Tween-80): 156 % of control | T/C (dose: 0.75 mg/kg/injection, schedule: Q01DX009 (ip), vehicle: distilled water + Tween-80): 160 % of control | T/C (dose: 0.75 mg/kg/injection, schedule: Q01DX009 (ip), vehicle: water): 182 % of control | T/C (dose: 1.5 mg/kg/injection, schedule: Q01DX009 (ip), vehicle: water): 231 % of control

Fc1ccc(NC(=S)SCc2ccc3c(c2)OCO3)cc1F
T/C [1]: 119 % of control | T/C [2]: 102 % of control | T/C [3]: 86 % of control

CCN(CC)CCCNC(=O)Cc1ccc2c(c1)C(=O)c1ccccc1C2=O
T/C (dose: 25.0 mg/kg/injection, schedule: Q01DX005 (ip), vehicle: water): 106 % of control | T/C (dose: 50.0 mg/kg/injection, schedule: Q01DX005 (ip), vehicle: water): 108 % of control | T/C (dose: 100.0 mg/kg/injection, schedule: Q04DX002 (ip), vehicle: water): 97 % of control

COc1ccc(C(SCC(N)C(=O)O)(c2ccccc2)c2ccc(OC)cc2)cc1 (stereo not drawn)
T/C (dose: 33.0 mg/kg/injection, schedule: Q04DX003 (ip), vehicle: saline): 185 % of control | T/C (dose: 50.0 mg/kg/injection, schedule: Q04DX003 (ip), vehicle: saline): 165 % of control | T/C (dose: 75.0 mg/kg/injection, schedule: Q04DX003 (ip), vehicle: saline): 90 % of control

Oc1[nH]c2ccccc2c1N=NC(=S)NC1C2CC3CC(C2)CC1C3 (stereo not drawn)
T/C [4]: 103 % of control | T/C [5]: 100 % of control | T/C [6]: 103 % of control

Nc1cccnc1
T/C (dose: 5.0 mg/kg/injection, schedule: Q04DX003 (ip), vehicle: saline): 100 % of control | T/C (dose: 10.0 mg/kg/injection, schedule: Q04DX003 (ip), vehicle: saline): 100 % of control | T/C (dose: 20.0 mg/kg/injection, schedule: Q04DX003 (ip), vehicle: saline): 100 % of control

COc1ccc2c(c1OC)C[N+]1(C)CCc3cc4c(cc3C1=C2)OCO4 (stereo not drawn)
T/C (dose: 0.63 mg/kg/injection, schedule: Q01DX009 (ip), vehicle: water): 114 % of control | T/C (dose: 1.25 mg/kg/injection, schedule: Q01DX009 (ip), vehicle: water): 108 % of control | T/C (dose: 2.5 mg/kg/injection, schedule: Q01DX009 (ip), vehicle: water): 100 % of control | T/C (dose: 5.0 mg/kg/injection, schedule: Q01DX009 (ip), vehicle: water): 101 % of control | T/C (dose: 10.0 mg/kg/injection, schedule: Q01DX009 (ip), vehicle: water): 110 % of control

COc1ccc(Oc2ccc(C(=O)C(CN(C)C)CN(C)C)cc2)cc1
T/C (dose: 3.75 mg/kg/injection, schedule: Q01DX005 (ip), vehicle: saline): 121 % of control | T/C (dose: 7.5 mg/kg/injection, schedule: Q01DX005 (ip), vehicle: saline): 124 % of control | T/C (dose: 30.0 mg/kg/injection, schedule: Q01DX005 (ip), vehicle: saline): 88 % of control

COn1nnc2ccc([N+](=O)[O-])cc21
T/C (dose: 50.0 mg/kg/injection, schedule: Q01DX001 (ip), vehicle: saline with Tween-80): 99 % of control | T/C (dose: 100.0 mg/kg/injection, schedule: Q01DX001 (ip), vehicle: saline with Tween-80): 101 % of control | T/C (dose: 200.0 mg/kg/injection, schedule: Q01DX001 (ip), vehicle: saline with Tween-80): 92 % of control

Cc1cc(Nc2ccccc2C(=O)N/N=C/c2ccc(N(CCCl)CCCl)cc2)nc2ccc(Cl)cc12
T/C (dose: 50.0 mg/kg/injection, schedule: Q01DX009 (ip), vehicle: saline): 95 % of control | T/C (dose: 100.0 mg/kg/injection, schedule: Q01DX009 (ip), vehicle: saline): 90 % of control | T/C (dose: 200.0 mg/kg/injection, schedule: Q01DX009 (ip), vehicle: saline): 95 % of control

CC1(C)OCC(C(OS(C)(=O)=O)C2OC(C)(C)OC2COS(C)(=O)=O)O1 (stereo not drawn)
T/C [1]: 91 % of control | T/C [2]: 97 % of control | T/C [3]: 99 % of control

COC1CC(C)(O)Cc2cc3c(c(O)c21)C(=O)c1c(O)cc2c(c1C3=O)OC1OC2(C)C(O)C(N(C)C)C1O (stereo not drawn)
T/C (dose: 6.25 mg/kg/injection, schedule: Q01DX009 (ip), vehicle: other): 158 % of control | T/C (dose: 12.5 mg/kg/injection, schedule: Q01DX009 (ip), vehicle: other): 176 % of control | T/C (dose: 25.0 mg/kg/injection, schedule: Q01DX009 (ip), vehicle: other): 168 % of control

O=C(CC(O)c1cccnc1)CC(O)c1cccnc1 (stereo not drawn)
T/C [7]: 100 % of control | T/C [8]: 114 % of control | T/C [9]: 114 % of control

Cc1ccnc(NS(=O)(=O)c2ccc(N=CC3C(=O)N(c4ccccc4)N(c4ccccc4)C3=O)cc2)n1
T/C [1]: 96 % of control | T/C [3]: 101 % of control

O=C(O)c1ccc(N2C(=O)CC3(CCCCC3)C2=O)cc1O
T/C (dose: 100.0 mg/kg/injection, schedule: Q04DX003 (ip), vehicle: Klucel (hydroxypropylcellulose) (HPC)): 101 % of control | T/C (dose: 200.0 mg/kg/injection, schedule: Q04DX003 (ip), vehicle: Klucel (hydroxypropylcellulose) (HPC)): 102 % of control | T/C (dose: 400.0 mg/kg/injection, schedule: Q04DX003 (ip), vehicle: Klucel (hydroxypropylcellulose) (HPC)): 88 % of control

CCCCCC12OCC(C)(C)N1O2 (stereo not drawn)
T/C [7]: 100 % of control | T/C [8]: 109 % of control | T/C [9]: 103 % of control

COC(=O)C(C)NC(=O)Cc1ccccc1 (stereo not drawn)
T/C (dose: 100.0 mg/kg/injection, schedule: Q04DX003 (ip), vehicle: saline with Tween-80): 104 % of control | T/C (dose: 200.0 mg/kg/injection, schedule: Q04DX003 (ip), vehicle: saline with Tween-80): 100 % of control | T/C (dose: 400.0 mg/kg/injection, schedule: Q04DX003 (ip), vehicle: saline with Tween-80): 90 % of control

Cc1cc2c(c(C#N)c1C)NC(=O)CN=C2c1ccccc1F
T/C [10]: 96 % of control | T/C [11]: 98 % of control | T/C [12]: 95 % of control

CCN(CC)C(=S)Oc1cc2oc(=O)cc(C)c2cc1Cl
T/C (dose: 50.0 mg/kg/injection, schedule: Q01DX009 (ip), vehicle: saline with Tween-80): 98 % of control | T/C (dose: 100.0 mg/kg/injection, schedule: Q01DX009 (ip), vehicle: saline with Tween-80): 100 % of control | T/C (dose: 200.0 mg/kg/injection, schedule: Q01DX009 (ip), vehicle: saline with Tween-80): 100 % of control

CCOC(=O)C1=CC(C(=O)OCC)=C2C=CC=C3C=CC=C1N32
T/C [10]: 93 % of control | T/C [11]: 90 % of control | T/C [12]: 88 % of control

CCOc1ccc(Cc2ccc3c(c2)OCO3)cc1C
T/C [4]: 101 % of control | T/C [5]: 108 % of control | T/C [6]: 111 % of control

C=CCNC(=S)N/N=C(\CCC)c1ccccn1
T/C [4]: 114 % of control | T/C [5]: 121 % of control

Cc1ccc(Br)c(C(O)(C(F)(F)F)C(F)(F)F)c1C
T/C [1]: 107 % of control | T/C [2]: 106 % of control

C=C(c1ccccc1)c1ccccc1-c1ccccc1C(=C)c1ccccc1
T/C (dose: 100.0 mg/kg/injection, schedule: Q04DX003 (ip), vehicle: saline): 99 % of control | T/C (dose: 200.0 mg/kg/injection, schedule: Q04DX003 (ip), vehicle: saline): 100 % of control | T/C (dose: 400.0 mg/kg/injection, schedule: Q04DX003 (ip), vehicle: saline): 98 % of control

CC1=COC2CCCCC2O1 (stereo not drawn) (tested in a mixture with another compound)
T/C (dose: 25.0 mg/kg/injection, schedule: Q01DX009 (ip), vehicle: acetone): 111 % of control | T/C (dose: 50.0 mg/kg/injection, schedule: Q01DX009 (ip), vehicle: acetone): 105 % of control

N#[N+]c1ccc2c(S(=O)(=O)Nc3ccc(-c4ccc(NS(=O)(=O)c5cccc6c([O-])c([N+]#N)ccc56)cc4)cc3)cccc2c1[O-]
T/C [1]: 102 % of control | T/C [2]: 99 % of control | T/C [3]: 98 % of control

CC(C)N(C(C)C)p1n(C(C)(C)C)n1C(C)(C)C
T/C (dose: 12.5 mg/kg/injection, schedule: Q01DX005 (ip), vehicle: Klucel (hydroxypropylcellulose) (HPC)): 108 % of control | T/C (dose: 25.0 mg/kg/injection, schedule: Q01DX005 (ip), vehicle: Klucel (hydroxypropylcellulose) (HPC)): 117 % of control | T/C (dose: 50.0 mg/kg/injection, schedule: Q01DX005 (ip), vehicle: Klucel (hydroxypropylcellulose) (HPC)): 110 % of control

COc1cc2c(cc1OC)C(Cc1ccc(OC)c(Oc3ccc(CC4c5cc(OC)c(OC)c(O)c5CCN4C)cc3)c1)N(C)CC2 (stereo not drawn)
T/C (dose: 20.0 mg/kg/injection, schedule: Q01DX009 (ip), vehicle: Klucel (hydroxypropylcellulose) (HPC)): 106 % of control | T/C (dose: 40.0 mg/kg/injection, schedule: Q01DX009 (ip), vehicle: Klucel (hydroxypropylcellulose) (HPC)): 107 % of control | T/C (dose: 80.0 mg/kg/injection, schedule: Q01DX009 (ip), vehicle: Klucel (hydroxypropylcellulose) (HPC)): 111 % of control
